Assay results as given in US20230027854A1, “ISOXAZOLE DERIVATIVES TARGETING TACC3 AS ANTICANCER AGENTS” (A2A Pharmaceuticals, inc., priority 2019, published 2023).

Tested on: JIMT-1 cells
Assay: JIMT-1 cell growth inhibition / cell viability (SRB assay)
Type: cell-based
Details: Homo sapiens; JIMT-1 cells; read-out: IC50
Experimental: The ability of the compounds of the present disclosure to treat TACC3-mediated cancers, or associated symptoms or complications thereof, was determined using the following procedures. The compounds of the present disclosure were tested for their activity against cell death induction using a JIMT-1 cell line, which was a cell line having high level of TACC3. The concentration of each compound that was required for half-maximal inhibition of cell proliferation was calculated by a GraphPad Prism (GraphPad Software).

Row | Structure (SMILES) | IC50 [nM]
1 | COc1cccc(-c2cc(Nc3ccnc(N4CCOCC4)n3)on2)c1 [Compound 6, 3-(3-methoxyphenyl)-N-(2-morpholinopyrimidin-4-yl)isoxazol-5-amine] | 3440
2 | COc1ccccc1-c1cc(Nc2ccnc(N3CCOCC3)n2)on1 [Compound 7, 3-(2-methoxyphenyl)-N-(2-morpholinopyrimidin-4-yl)isoxazol-5-amine] | 8270
3 | c1ccc(-c2cc(Nc3ccnc(N4CCOCC4)n3)on2)cc1 [Compound 8, N-(2-morpholinopyrimidin-4-yl)-3-phenylisoxazol-5-amine] | > 10000
4 | CCOc1ccc(-c2cc(Nc3ccnc(N4CCOCC4)n3)on2)cc1 [Compound 9, 3-(4-ethoxyphenyl)-N-(2-morpholinopyrimidin-4-yl)isoxazol-5-amine] | 810
5 | CCCOc1ccc(-c2cc(Nc3ccnc(N4CCOCC4)n3)on2)cc1 [Compound 10, N-(2-morpholinopyrimidin-4-yl)-3-(4-propoxyphenyl)isoxazol-5-amine] | > 10000
6 | Fc1ccc(-c2cc(Nc3ccnc(N4CCOCC4)n3)on2)cc1 [Compound 11, 3-(4-fluorophenyl)-N-(2-morpholinopyrimidin-4-yl)isoxazol-5-amine] | > 10000
7 | Clc1ccc(-c2cc(Nc3ccnc(N4CCOCC4)n3)on2)cc1 [Compound 12, 3-(4-chlorophenyl)-N-(2-morpholinopyrimidin-4-yl)isoxazol-5-amine] | > 10000
8 | Cc1ccc(-c2cc(Nc3ccnc(N4CCOCC4)n3)on2)cc1 [Compound 13, N-(2-morpholinopyrimidin-4-yl)-3-(p-tolyl)isoxazol-5-amine] | 640
9 | CCc1ccc(-c2cc(Nc3ccnc(N4CCOCC4)n3)on2)cc1 [Compound 14, 3-(4-ethylphenyl)-N-(2-morpholinopyrimidin-4-yl)isoxazol-5-amine] | 259
10 | CC(C)c1ccc(-c2cc(Nc3ccnc(N4CCOCC4)n3)on2)cc1 [Compound 15, 3-(4-isopropylphenyl)-N-(2-morpholinopyrimidin-4-yl)isoxazol-5-amine] | 3610
11 | FC(F)(F)c1ccc(-c2cc(Nc3ccnc(N4CCOCC4)n3)on2)cc1 [Compound 16, N-(2-morpholinopyrimidin-4-yl)-3-(4-(trifluoromethyl)phenyl)isoxazol-5-amine] | > 10000
12 | CC(F)(F)c1ccc(-c2cc(Nc3ccnc(N4CCOCC4)n3)on2)cc1 [Compound 17, 3-(4-(1,1-difluoroethyl)phenyl)-N-(2-morpholinopyrimidin-4-yl)isoxazol-5-amine] | > 10000
13 | FC(F)Oc1ccc(-c2cc(Nc3ccnc(N4CCOCC4)n3)on2)cc1 [Compound 18, 3-(4-(difluoromethoxy)phenyl)-N-(2-morpholinopyrimidin-4-yl)isoxazol-5-amine] | 4230
14 | FC(F)(F)Oc1ccc(-c2cc(Nc3ccnc(N4CCOCC4)n3)on2)cc1 [Compound 19, N-(2-morpholinopyrimidin-4-yl)-3-(4-(trifluoromethoxy)phenyl)isoxazol-5-amine] | > 10000
15 | CSc1ccc(-c2cc(Nc3ccnc(N4CCOCC4)n3)on2)cc1 [Compound 20, 3-(4-(methylthio)phenyl)-N-(2-morpholinopyrimidin-4-yl)isoxazol-5-amine] | 30
16 | CN(C)c1ccc(-c2cc(Nc3ccnc(N4CCOCC4)n3)on2)cc1 [Compound 21, 3-(4-(dimethylamino)phenyl)-N-(2-morpholinopyrimidin-4-yl)isoxazol-5-amine] | 120

Row | Structure (SMILES) | IC50 [nM]
17 | COc1ccc(-c2cc(Nc3ccnc(N4CCOCC4)n3)on2)cc1F [Compound 22, 3-(3-fluoro-4-methoxyphenyl)-N-(2-morpholinopyrimidin-4-yl)isoxazol-5-amine] | 13
18 | COc1ccc(-c2cc(Nc3ccnc(N4CCOCC4)n3)on2)cc1Cl [Compound 23, 3-(3-chloro-4-methoxyphenyl)-N-(2-morpholinopyrimidin-4-yl)isoxazol-5-amine] | 480
19 | COc1ccc(-c2cc(Nc3ccnc(N4CCOCC4)n3)on2)cc1OC [Compound 24, 3-(3,4-dimethoxyphenyl)-N-(2-morpholinopyrimidin-4-yl)isoxazol-5-amine] | 730
20 | c1cc(Nc2cc(-c3ccc4c(c3)OCO4)no2)nc(N2CCOCC2)n1 [Compound 26, 3-(benzo[d][1,3]dioxol-5-yl)-N-(2-morpholinopyrimidin-4-yl)isoxazol-5-amine] | 870
21 | COc1ccc(-c2cc(Nc3ccnc(N4CCOCC4)n3)on2)cn1 [Compound 27, 3-(6-methoxypyridin-3-yl)-N-(2-morpholinopyrimidin-4-yl)isoxazol-5-amine] | 7300
22 | Oc1ccc(-c2cc(Nc3ccnc(N4CCOCC4)n3)on2)cc1 [Compound 30, 4-(5-((2-morpholinopyrimidin-4-yl)amino)isoxazol-3-yl)phenol] | > 10000
23 | c1ccc(COc2ccc(-c3cc(Nc4ccnc(N5CCOCC5)n4)on3)cc2)cc1 [Compound 32, 3-(4-(benzyloxy)phenyl)-N-(2-morpholinopyrimidin-4-yl)isoxazol-5-amine] | > 10000
24 | COc1ccc(-c2cc(Nc3ccnc(N4C[C@@H](C)O[C@@H](C)C4)n3)on2)cc1 [Compound 33, N-(2-((2R,6S)-2,6-dimethylmorpholino)pyrimidin-4-yl)-3-(4-methoxyphenyl)isoxazol-5-amine] | 230
25 | COc1ccc(-c2cc(Nc3ccnc(N4C5CCC4COC5)n3)on2)cc1 [Compound 34, N-(2-(3-oxa-8-azabicyclo[3.2.1]octan-8-yl)pyrimidin-4-yl)-3-(4-methoxyphenyl)isoxazol-5-amine] | 160
26 | COc1ccc(-c2cc(Nc3ccnc(N4CC5CCC(C4)O5)n3)on2)cc1 [Compound 35, N-(2-(8-oxa-3-azabicyclo[3.2.1]octan-3-yl)pyrimidin-4-yl)-3-(4-methoxyphenyl)isoxazol-5-amine] | 3090
27 | COc1ccc(-c2cc(Nc3ccnc(N4C[C@@H]5C[C@H]4CO5)n3)on2)cc1 [Compound 36, N-(2-((1S,4S)-2-oxa-5-azabicyclo[2.2.1]heptan-5-yl)pyrimidin-4-yl)-3-(4-methoxyphenyl)isoxazol-5-amine] | 2020
28 | COc1ccc(-c2cc(Nc3ccnc(N4C[C@H]5C[C@@H]4CO5)n3)on2)cc1 [Compound 37, N-(2-((1R,4R)-2-oxa-5-azabicyclo[2.2.1]heptan-5-yl)pyrimidin-4-yl)-3-(4-methoxyphenyl)isoxazol-5-amine] | 480
29 | COc1ccc(-c2cc(Nc3ccnc(N4CCC(F)CC4)n3)on2)cc1 [Compound 38, N-(2-(4-fluoropiperidin-1-yl)pyrimidin-4-yl)-3-(4-methoxyphenyl)isoxazol-5-amine] | 130
30 | COc1ccc(-c2cc(Nc3ccnc(N4CCC(F)(F)CC4)n3)on2)cc1 [Compound 39, N-(2-(4,4-difluoropiperidin-1-yl)pyrimidin-4-yl)-3-(4-methoxyphenyl)isoxazol-5-amine] | 370
31 | COc1ccc(-c2cc(Nc3ccnc(N4CCSCC4)n3)on2)cc1 [Compound 40, 3-(4-methoxyphenyl)-N-(2-thiomorpholinopyrimidin-4-yl)isoxazol-5-amine] | 113
32 | COc1ccc(-c2cc(Nc3ccnc(N4CCS(=O)(=O)CC4)n3)on2)cc1 [Compound 41, 4-(4-((3-(4-methoxyphenyl)isoxazol-5-yl)amino)pyrimidin-2-yl)thiomorpholine 1,1-dioxide] | > 10000
